Measurements published in ChEMBL document CHEMBL1201862, “PubChem BioAssay data set” (2004).
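1) Cells in 96-well plates. 2) Compound, 48 h, 5 concentrations. 3) Linear interpolation between surrounding doses. 4) Unreached endpoint = highest concentration. GI50 is the concentration that inhibits growth by half.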 Activity calls are given as the source filed them. Rule as the data show it: active = GI50 up to about 1.1 µM and inactive = higher.

How the values were obtained:
Test in all cases: growth of human tumour cells (NCI), 48 h
U-251 = test system: U-251
NCI-H460 = test system: NCI-H460
SNB-75 = test system: SNB-75
MDA-MB-231 = test system: MDA-MB-231
SW-620 = test system: SW-620
NCI-H522 = test system: NCI-H522
SN12C = test system: SN12C
786-0 = test system: 786-0
ACHN = test system: ACHN
MDA-N = test system: MDA-N
HCT-15 = test system: HCT-15
TK-10 = test system: TK-10
UO-31 = test system: UO-31
LOX IMVI = test system: LOX IMVI
UACC-257 = test system: UACC-257
EKVX = test system: EKVX
HOP-62 = test system: HOP-62
HT-29 = test system: HT-29
OVCAR-4 = test system: OVCAR-4
MDA-MB-435 = test system: MDA-MB-435

| Structure (SMILES) | GI50 (U-251) | GI50 (NCI-H460) | GI50 (SNB-75) | GI50 (MDA-MB-231) | GI50 (SW-620) | GI50 (NCI-H522) | GI50 (SN12C) | GI50 (786-0) | GI50 (ACHN) | GI50 (MDA-N) | GI50 (HCT-15) [µM] | GI50 (TK-10) | GI50 (UO-31) | GI50 (LOX IMVI) | GI50 (UACC-257) | GI50 (EKVX) | GI50 (HOP-62) | GI50 (HT-29) | GI50 (OVCAR-4) | GI50 (MDA-MB-435) |
| --- | --- | --- | --- | --- | --- | --- | --- | --- | --- | --- | --- | --- | --- | --- | --- | --- | --- | --- | --- | --- |
| CN(C)c1ccc(/N=N\c2cccc3ccoc23)cc1 | > 62.5 µM (inactive) | > 73.3 µM (inactive) | > 84.3 µM (inactive) | > 76.9 µM (inactive) | 50.8 µM (inactive) | 35.4 µM (inactive) | > 75 µM (inactive) | > 100 µM (inactive) | > 100 µM (inactive) | > 94.4 µM (inactive) | 45.2 | 56.5 µM (inactive) | 6.46 µM (inactive) | > 100 µM (inactive) | > 60.7 µM (inactive) | 26.9 µM (inactive) | > 100 µM (inactive) | 29.5 µM (inactive) | 29.4 µM (inactive) | > 94.2 µM (inactive) |
| CN(C)CC1CCC/C(=C\c2ccc(OC(=O)/C=C/c3ccc(Cl)c(Cl)c3)cc2)C1=O (stereo not given) | 6.17 µM (inactive) | 3.86 µM (inactive) | 18.4 µM (inactive) | 3.71 µM (inactive) | 2.75 µM (inactive) | 3.37 µM (inactive) | 2.39 µM (inactive) | 1.83 µM (inactive) | 1.82 µM (inactive) | 3.37 µM (inactive) | 2.45 | 1.76 µM (inactive) | 2.77 µM (inactive) | 1.86 µM (inactive) | 9.91 µM (inactive) | 5.9 µM (inactive) | 2.75 µM (inactive) | 2.11 µM (inactive) | 22.9 µM (inactive) | 6.89 µM (inactive) |
| CSc1nc(NC2OCC(OC(C)=O)C(OC(C)=O)C2OC(C)=O)c(/N=C\C=N\c2c(NC3OCC(OC(C)=O)C(OC(C)=O)C3OC(C)=O)nc(SC)[nH]c2=O)c(=O)[nH]1 (stereo not given) | 56.4 µM (inactive) | > 100 µM (inactive) | 19.9 µM (inactive) | > 100 µM (inactive) | > 100 µM (inactive) | > 61.2 µM (inactive) | > 100 µM (inactive) | 30.1 µM (inactive) | > 67.8 µM (inactive) | > 100 µM (inactive) | > 100 | 56.9 µM (inactive) | > 83 µM (inactive) | > 100 µM (inactive) | > 100 µM (inactive) | > 86.9 µM (inactive) | 30.5 µM (inactive) | > 100 µM (inactive) | > 100 µM (inactive) | > 100 µM (inactive) |
| O=C(O)c1ccc(N2C=[N+]3C(=Nc4ccccc43)C2)cc1 | > 100 µM (inactive) | > 100 µM (inactive) | 62.7 µM (inactive) | > 100 µM (inactive) | > 100 µM (inactive) | > 100 µM (inactive) | > 100 µM (inactive) | > 100 µM (inactive) | > 100 µM (inactive) | > 100 µM (inactive) | > 100 | > 100 µM (inactive) | > 100 µM (inactive) | > 100 µM (inactive) | > 100 µM (inactive) | > 100 µM (inactive) | > 100 µM (inactive) | > 100 µM (inactive) | > 100 µM (inactive) | > 100 µM (inactive) |
| O=C(Nc1nnc(-c2ccccc2)o1)C(SC(=S)N1CCOCC1)c1ccccc1 (stereo not given) | 18.6 µM (inactive) | 10.1 µM (inactive) | 47.9 µM (inactive) | 42 µM (inactive) | 42.5 µM (inactive) | 23.2 µM (inactive) | 12.6 µM (inactive) | 17.9 µM (inactive) | 20.9 µM (inactive) | 26.3 µM (inactive) | 5.43 | 51.6 µM (inactive) | 13.6 µM (inactive) | 16.3 µM (inactive) | 35.6 µM (inactive) | 15.3 µM (inactive) | 24.1 µM (inactive) | 26.4 µM (inactive) | 34 µM (inactive) | 33.2 µM (inactive) |
| CC(C)Oc1c(C2(c3ccccc3)SCCCS2)c(=O)c1=O | > 100 µM (inactive) | > 100 µM (inactive) | > 100 µM (inactive) | > 100 µM (inactive) | > 100 µM (inactive) | 24.7 µM (inactive) | > 100 µM (inactive) | > 100 µM (inactive) | > 100 µM (inactive) | > 100 µM (inactive) | > 100 | > 100 µM (inactive) | > 100 µM (inactive) | > 100 µM (inactive) | > 100 µM (inactive) | > 100 µM (inactive) | > 100 µM (inactive) | > 100 µM (inactive) | > 100 µM (inactive) | > 100 µM (inactive) |
| CC1=NC(C)(COC(=O)C2(C)NC(C)(CO)CO2)COC1=O (stereo not given) | > 100 µM (inactive) | > 100 µM (inactive) | > 100 µM (inactive) | > 100 µM (inactive) | > 100 µM (inactive) | > 100 µM (inactive) | > 100 µM (inactive) | > 100 µM (inactive) | > 100 µM (inactive) | > 100 µM (inactive) | > 100 | > 75 µM (inactive) | > 100 µM (inactive) | > 100 µM (inactive) | > 100 µM (inactive) | > 100 µM (inactive) | > 100 µM (inactive) | > 100 µM (inactive) | > 100 µM (inactive) | > 100 µM (inactive) |
| CS(=O)(=O)OCCN(CCOS(C)(=O)=O)c1ccc(/C=N/c2ccc3oc(=O)ccc3c2)cc1 | 9.38 µM (inactive) | 0.0313 µM (active) | 2.43 µM (inactive) | 32.9 µM (inactive) | 14.2 µM (inactive) | 0.211 µM (active) | 6.78 µM (inactive) | 0.321 µM (active) | 0.492 µM (active) | 10.9 µM (inactive) | 7.21 | 2.45 µM (inactive) | 0.959 µM (active) | 7.23 µM (inactive) | 6.82 µM (inactive) | 8.2 µM (inactive) | 1.89 µM (inactive) | 5.66 µM (inactive) | 11.7 µM (inactive) | 11.1 µM (inactive) |
| Cc1ccc(C(=O)/C=C2/Nc3ccc([N+](=O)[O-])cc3N/C2=C/C(=O)c2ccc(C)cc2)cc1 | 27.7 µM (inactive) | > 100 µM (inactive) | 10.6 µM (inactive) | 29.1 µM (inactive) | > 100 µM (inactive) | 47.1 µM (inactive) | > 100 µM (inactive) | 60.7 µM (inactive) | 37.5 µM (inactive) | > 100 µM (inactive) | 90.8 | > 100 µM (inactive) | > 100 µM (inactive) | > 100 µM (inactive) | > 100 µM (inactive) | 61.4 µM (inactive) | 15.3 µM (inactive) | > 100 µM (inactive) | 61.4 µM (inactive) | > 100 µM (inactive) |
| COc1cc(OC)cc(OCc2ccc3nc(-c4ccccc4)c(Cl)nc3c2)c1 | 20.9 µM (inactive) | 37 µM (inactive) | 15.8 µM (inactive) | 7.16 µM (inactive) | 59.8 µM (inactive) | 5.05 µM (inactive) | 40.7 µM (inactive) | 9.89 µM (inactive) | 17.7 µM (inactive) | 44.1 µM (inactive) | > 100 | 20.2 µM (inactive) | 66.2 µM (inactive) | 43.1 µM (inactive) | > 100 µM (inactive) | 27 µM (inactive) | 16.7 µM (inactive) | 48.5 µM (inactive) | 24.1 µM (inactive) | 84.5 µM (inactive) |
| Cc1ccc(S(=O)(=O)n2cc(C#N)c(C#N)c2)cc1 | 13.3 µM (inactive) | 36.5 µM (inactive) | 32.7 µM (inactive) | 42.6 µM (inactive) | 34.6 µM (inactive) | 15.4 µM (inactive) | 29.1 µM (inactive) | 36.2 µM (inactive) | 19.3 µM (inactive) | 27.1 µM (inactive) | 17.9 | 38.3 µM (inactive) | 26.9 µM (inactive) | 22.8 µM (inactive) | 29.2 µM (inactive) | 30.2 µM (inactive) | 24.5 µM (inactive) | 23.9 µM (inactive) | 74 µM (inactive) | 19.8 µM (inactive) |
